Laboratory results published in ChEMBL document CHEMBL1201862, “PubChem BioAssay data set” (2004).
The source made the active and inactive calls.

Assays:
Danio rerio = test: In Vivo Angiogenesis Dose-Response Confirmation. [Related pubchem assays: 732 (Assay preceding this confirmatory assay.)]; assay type: functional, organism-based
[1] = Luminescence Cell-Based Dose Response to Identify Activators of 5'UTR Stem-Loop Driven Prion Protein mRNA Translation in H4-C Neuroglioblastoma Cells. [Related pubchem assays: 1829 (Project Summary), 1814 (Primary HTS)]; assay type: functional
[2] = target: T1, RNA-binding protein pos-1 (Caenorhabditis elegans, UniProt G5EF15); test: disruptors of C. elegans POS-1 RNA interaction – biochemical, fluorescence polarization, dose response (AID 1964);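 note: purified POS-1 fused to maltose binding protein made in E. coli; potency of compounds blocking POS-1 binding to fluorescent RNA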
T1 sequence (G5EF15 whole entry): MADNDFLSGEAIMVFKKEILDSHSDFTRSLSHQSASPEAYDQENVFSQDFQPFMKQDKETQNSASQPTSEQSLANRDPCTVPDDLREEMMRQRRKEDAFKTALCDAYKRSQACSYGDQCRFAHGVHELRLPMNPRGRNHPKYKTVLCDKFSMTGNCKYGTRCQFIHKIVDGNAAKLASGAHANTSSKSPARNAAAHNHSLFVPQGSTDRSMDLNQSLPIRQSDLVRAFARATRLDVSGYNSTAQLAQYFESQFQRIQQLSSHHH

[3] = Luminescence Cell-Based Dose Response HTS to Identify Activators of Luciferase Translation or Activity in H4 […] Cells. [Related pubchem assays: 1829 (Project Summary), 1814 (Primary HTS)]; assay type: functional
H4 = test: Luminescence Cell-Based Dose Response HTS to Identify Activators of 5'UTR Stem-Loop Driven Prion Protein mRNA Translation in H4 Neuroglioblastoma Cells. [Related pubchem assays: 1829 (Project Summary), 1814 (Primary HTS)]; assay type: functional; conditions: Homo sapiens
[4] = target: T2, Zinc finger protein mex-5 (Caenorhabditis elegans, UniProt Q9XUB2); test: potency of MEX-5 RNA-binding blockers – biochemical, C. elegans, fluorescence polarization, dose response (AID 1960)
T2 sequence (Q9XUB2 whole entry): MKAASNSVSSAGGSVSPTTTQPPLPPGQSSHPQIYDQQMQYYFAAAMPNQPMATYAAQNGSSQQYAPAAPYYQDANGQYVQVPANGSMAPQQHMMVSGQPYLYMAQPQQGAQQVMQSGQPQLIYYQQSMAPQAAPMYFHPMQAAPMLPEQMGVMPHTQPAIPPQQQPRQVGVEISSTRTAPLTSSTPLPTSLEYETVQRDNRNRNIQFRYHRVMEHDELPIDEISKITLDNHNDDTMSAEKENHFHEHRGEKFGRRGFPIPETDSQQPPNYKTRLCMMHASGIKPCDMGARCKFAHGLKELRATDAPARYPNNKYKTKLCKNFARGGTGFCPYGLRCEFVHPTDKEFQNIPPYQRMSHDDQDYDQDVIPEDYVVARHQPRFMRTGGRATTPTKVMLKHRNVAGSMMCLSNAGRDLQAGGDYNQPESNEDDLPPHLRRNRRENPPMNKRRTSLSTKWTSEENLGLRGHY

[5] = Luminescence Cell-Based Dose Response to Identify Activators of Luciferase Translation or Activity in H4-C Neuroglioblastoma Cells. [Related pubchem assays: 1829 (Project Summary), 1814 (Primary HTS)]; assay type: functional
Estrogen receptor beta = Estrogen receptor beta (Homo sapiens, UniProt Q92731);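 note: recombinant ER-beta bound to coactivator SRC1 peptide in presence of estradiol agonist; inhibitors block coactivator peptide binding and lower the FRET signal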
Chain of Estrogen receptor beta (Q92731 whole entry): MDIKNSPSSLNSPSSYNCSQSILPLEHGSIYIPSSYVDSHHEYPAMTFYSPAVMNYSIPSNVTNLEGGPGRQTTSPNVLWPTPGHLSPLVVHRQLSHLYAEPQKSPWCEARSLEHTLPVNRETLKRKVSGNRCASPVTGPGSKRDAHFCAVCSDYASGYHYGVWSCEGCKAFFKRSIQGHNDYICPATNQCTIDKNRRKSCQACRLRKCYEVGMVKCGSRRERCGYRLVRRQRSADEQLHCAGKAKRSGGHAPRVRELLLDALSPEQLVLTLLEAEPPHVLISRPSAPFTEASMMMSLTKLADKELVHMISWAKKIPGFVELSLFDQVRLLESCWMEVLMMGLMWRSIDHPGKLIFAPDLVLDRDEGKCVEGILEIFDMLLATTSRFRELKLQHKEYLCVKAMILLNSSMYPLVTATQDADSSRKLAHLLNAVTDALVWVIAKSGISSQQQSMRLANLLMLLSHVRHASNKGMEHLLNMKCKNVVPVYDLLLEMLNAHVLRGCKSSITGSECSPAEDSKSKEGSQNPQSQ

[6] = target: Protein-tyrosine kinase 2-beta (Homo sapiens, UniProt Q14289);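 note: potency of inhibitors of PYK2 kinase phosphorylation of poly-GT substrate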
Chain of Protein-tyrosine kinase 2-beta (Q14289 whole entry): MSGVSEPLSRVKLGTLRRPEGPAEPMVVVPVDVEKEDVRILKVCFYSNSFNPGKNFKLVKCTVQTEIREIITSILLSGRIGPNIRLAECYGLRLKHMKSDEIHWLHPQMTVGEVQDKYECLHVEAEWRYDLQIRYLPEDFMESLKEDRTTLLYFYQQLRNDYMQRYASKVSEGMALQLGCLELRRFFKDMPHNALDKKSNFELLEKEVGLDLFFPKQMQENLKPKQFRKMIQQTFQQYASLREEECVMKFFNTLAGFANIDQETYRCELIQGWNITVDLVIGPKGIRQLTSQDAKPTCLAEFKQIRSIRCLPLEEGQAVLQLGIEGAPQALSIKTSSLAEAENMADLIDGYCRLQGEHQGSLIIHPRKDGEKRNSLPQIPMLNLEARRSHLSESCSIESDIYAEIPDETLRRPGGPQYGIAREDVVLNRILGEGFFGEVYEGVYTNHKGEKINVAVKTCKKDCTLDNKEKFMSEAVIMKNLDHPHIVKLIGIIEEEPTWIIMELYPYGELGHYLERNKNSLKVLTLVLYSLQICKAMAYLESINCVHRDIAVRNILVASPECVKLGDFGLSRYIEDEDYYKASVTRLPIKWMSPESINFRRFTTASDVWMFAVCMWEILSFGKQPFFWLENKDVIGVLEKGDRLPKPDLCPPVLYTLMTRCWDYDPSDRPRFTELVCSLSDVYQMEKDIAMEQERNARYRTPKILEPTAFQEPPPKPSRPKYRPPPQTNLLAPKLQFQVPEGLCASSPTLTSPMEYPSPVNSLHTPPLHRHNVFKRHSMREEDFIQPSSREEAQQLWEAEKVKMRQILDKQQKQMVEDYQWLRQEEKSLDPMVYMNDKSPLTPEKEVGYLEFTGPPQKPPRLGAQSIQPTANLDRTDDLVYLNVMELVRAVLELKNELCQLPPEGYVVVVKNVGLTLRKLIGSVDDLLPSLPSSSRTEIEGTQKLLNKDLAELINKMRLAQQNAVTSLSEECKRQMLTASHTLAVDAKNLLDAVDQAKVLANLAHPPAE

[7] = Luminescence Cell-Based Dose Confirmation to Identify Activators of 5'UTR Stem-Loop Driven Alpha-Synuclein mRNA Translation in H4 Neuroglioblastoma Cells. [Related pubchem assays: 1829 (Project Summary), 1814 (Primary HTS)]; assay type: functional
Mucolipin-3 [8] = target: T3, Mucolipin-3 (Homo sapiens, UniProt Q8TDD5); test: human mucolipin-3 activators, concentration-response – cell-based, calcium fluorescence, dose response (AID 2510); assay type: functional
T3 sequence (Q8TDD5 whole entry): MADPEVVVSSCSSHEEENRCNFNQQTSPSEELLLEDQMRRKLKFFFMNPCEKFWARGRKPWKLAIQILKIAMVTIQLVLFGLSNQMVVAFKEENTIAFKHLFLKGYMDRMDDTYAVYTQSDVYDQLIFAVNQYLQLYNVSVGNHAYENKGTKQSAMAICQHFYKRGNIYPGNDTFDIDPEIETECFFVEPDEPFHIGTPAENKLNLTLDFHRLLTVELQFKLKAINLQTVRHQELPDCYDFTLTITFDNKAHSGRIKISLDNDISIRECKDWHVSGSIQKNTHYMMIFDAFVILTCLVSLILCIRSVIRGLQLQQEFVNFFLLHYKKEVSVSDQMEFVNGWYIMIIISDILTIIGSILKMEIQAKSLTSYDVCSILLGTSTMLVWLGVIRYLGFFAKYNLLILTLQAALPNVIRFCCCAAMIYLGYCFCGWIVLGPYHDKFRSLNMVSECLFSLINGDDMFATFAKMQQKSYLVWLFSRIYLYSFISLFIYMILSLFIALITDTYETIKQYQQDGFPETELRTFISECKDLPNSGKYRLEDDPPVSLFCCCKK

Mucolipin-3 [9] = target: T3, Mucolipin-3; test: Dose response cell-based high-throughput screening assay for agonists of the transient receptor potential channel ML3 (TRPML3). [Related pubchem assays: 1526, 1424, 1448 ]; assay type: functional
Ion channel NompC [10] = target: T4, Ion channel NompC (Danio rerio, UniProt Q7T1G6); test: Late stage counterscreen for the probe development effort to identify selective agonists of the Transient Receptor Potential Channels 3 (TRPML3): fluorescence-based cell-based dose response assay for TRPN1 agonists.; assay type: functional
T4 sequence (Q7T1G6 whole entry): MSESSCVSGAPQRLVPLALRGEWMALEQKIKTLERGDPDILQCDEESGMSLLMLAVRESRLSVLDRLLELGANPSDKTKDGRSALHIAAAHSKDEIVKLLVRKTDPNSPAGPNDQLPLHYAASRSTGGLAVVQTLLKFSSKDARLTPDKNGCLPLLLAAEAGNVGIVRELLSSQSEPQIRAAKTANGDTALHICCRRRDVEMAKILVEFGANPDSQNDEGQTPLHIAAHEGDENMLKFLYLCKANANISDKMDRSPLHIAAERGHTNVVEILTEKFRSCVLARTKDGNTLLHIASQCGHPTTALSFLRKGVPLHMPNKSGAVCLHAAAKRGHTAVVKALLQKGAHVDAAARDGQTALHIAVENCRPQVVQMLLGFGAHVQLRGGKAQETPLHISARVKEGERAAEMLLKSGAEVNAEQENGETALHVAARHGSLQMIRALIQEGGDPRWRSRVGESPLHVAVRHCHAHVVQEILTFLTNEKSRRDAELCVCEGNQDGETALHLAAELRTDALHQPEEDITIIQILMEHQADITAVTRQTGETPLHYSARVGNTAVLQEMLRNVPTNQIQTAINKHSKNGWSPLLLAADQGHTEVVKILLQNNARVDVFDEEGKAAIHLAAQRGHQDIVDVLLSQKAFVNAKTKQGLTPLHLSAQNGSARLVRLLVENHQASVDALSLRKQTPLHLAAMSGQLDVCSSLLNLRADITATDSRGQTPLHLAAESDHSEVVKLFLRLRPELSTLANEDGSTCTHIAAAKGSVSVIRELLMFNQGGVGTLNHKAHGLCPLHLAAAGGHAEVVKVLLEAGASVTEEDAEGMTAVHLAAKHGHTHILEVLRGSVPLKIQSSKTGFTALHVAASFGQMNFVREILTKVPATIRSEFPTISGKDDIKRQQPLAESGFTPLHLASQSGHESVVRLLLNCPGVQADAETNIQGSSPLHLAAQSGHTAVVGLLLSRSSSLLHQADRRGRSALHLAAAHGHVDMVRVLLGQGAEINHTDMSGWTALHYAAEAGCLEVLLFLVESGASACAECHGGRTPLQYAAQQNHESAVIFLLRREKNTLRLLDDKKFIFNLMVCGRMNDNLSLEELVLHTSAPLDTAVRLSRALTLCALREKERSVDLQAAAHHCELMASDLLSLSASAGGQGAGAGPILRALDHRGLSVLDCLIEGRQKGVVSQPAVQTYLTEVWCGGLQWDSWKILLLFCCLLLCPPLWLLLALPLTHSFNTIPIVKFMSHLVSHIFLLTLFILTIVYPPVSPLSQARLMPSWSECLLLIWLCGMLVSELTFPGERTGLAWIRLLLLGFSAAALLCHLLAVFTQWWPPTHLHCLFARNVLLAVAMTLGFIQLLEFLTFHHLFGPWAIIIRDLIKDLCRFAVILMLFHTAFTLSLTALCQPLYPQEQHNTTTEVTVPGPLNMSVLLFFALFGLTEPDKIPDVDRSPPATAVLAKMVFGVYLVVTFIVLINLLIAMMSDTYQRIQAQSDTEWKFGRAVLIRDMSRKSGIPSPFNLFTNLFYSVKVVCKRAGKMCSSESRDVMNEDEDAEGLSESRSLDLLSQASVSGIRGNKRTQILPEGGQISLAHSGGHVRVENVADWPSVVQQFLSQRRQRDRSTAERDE

Ion channel NompC [11] = target: T4, Ion channel NompC; test: Fluorescence counterscreen assay for TRPML3 agonists: dose response cell-based high-throughput screening assay to identify agonists of the transient receptor potential channel N1 (TRPN1). [Related pubchem assays: 1526, 1424, 1448 ]; assay type: functional

Structure (SMILES): O=C1Nc2ccc(F)cc2/C1=C1/Nc2ccccc2/C1=N\O
- IC50 (Danio rerio): 380 nM (not active)

Structure (SMILES): CCc1c(C)nc(SCC(=O)c2cccs2)c(C#N)c1C
- EC50 [1]: 332 nM (active)
- EC50 [2]: 11500 nM (inconclusive)
- EC50 [3]: < 100 nM (inconclusive)
- EC50 (H4): 149 nM (active)
- EC50 [4]: 36700 nM (inconclusive)
- EC50 [5]: 302 nM (active)
- IC50 (Estrogen receptor beta): > 50000 nM (not active)
- IC50 [6]: > 69500 nM (not active)
- EC50 [7]: 552 nM (active)

Structure (SMILES): CCOc1ccc(S(=O)(=O)N2CCCCCC2)c2ccccc12
- EC50 (Mucolipin-3 [8]): 950 nM (active)
- EC50 (Mucolipin-3 [9]): 1030 nM (active)
- EC50 (Ion channel NompC [10]): > 29900 nM (not active)
- EC50 (Ion channel NompC [11]): > 29900 nM (not active)
